Measurements: US5288720A, “Angiotensin II receptor blocking 2,3,6 substituted quinazolinones” (American Cyanamid Company, priority 1993, dated 1994)

Test system: ANGIOTENSIN II VASOPRESSOR RESPONSE
Assay: AII Challenge: blockade of angiotensin II vasopressor response in conscious SHR
Type: in vivo, rat (Conscious Male Okamoto-Aoki SHR)
Conditions: SHR n=2
Procedure, shortened: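 Percent blockade is derived from the systolic pressure rise in mmHg, taking each rat's own predose response as 100%. Rats were conscious male Okamoto-Aoki SHR, 16-20 weeks, ~330 g, with aortic and caval cannulas under local procaine. Compound went i.v., i.p. or orally, then angiotensin II challenges (0.05 and 0.1 ug/kg i.v.) at 30-300 min.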

[1] = 3 mg/kg p.o., AII 0.05 mcg/kg IV, 30 min post dose
[2] = 3 mg/kg p.o., AII 0.05 mcg/kg IV, 60 min post dose
[3] = 3 mg/kg p.o., AII 0.05 mcg/kg IV, 90 min post dose
[4] = 3 mg/kg p.o., AII 0.05 mcg/kg IV, 120 min post dose
[5] = 3 mg/kg p.o., AII 0.05 mcg/kg IV, 180 min post dose
[6] = 3 mg/kg p.o., AII 0.05 mcg/kg IV, 240 min post dose
[7] = 3 mg/kg p.o., AII 0.05 mcg/kg IV, 300 min post dose
[8] = 3 mg/kg p.o., AII 0.1 mcg/kg IV, 30 min post dose
[9] = 3 mg/kg p.o., AII 0.1 mcg/kg IV, 60 min post dose
[10] = 3 mg/kg p.o., AII 0.1 mcg/kg IV, 90 min post dose
[11] = 3 mg/kg p.o., AII 0.1 mcg/kg IV, 120 min post dose
[12] = 3 mg/kg p.o., AII 0.1 mcg/kg IV, 180 min post dose
[13] = 3 mg/kg p.o., AII 0.1 mcg/kg IV, 240 min post dose
[14] = 3 mg/kg p.o., AII 0.1 mcg/kg IV, 300 min post dose
[15] = 10 mg/kg i.v., AII 0.05 mcg/kg IV, 30 min post dose
[16] = 10 mg/kg i.v., AII 0.05 mcg/kg IV, 60 min post dose
[17] = 10 mg/kg i.v., AII 0.05 mcg/kg IV, 90 min post dose
[18] = 10 mg/kg i.v., AII 0.05 mcg/kg IV, 120 min post dose
[19] = 10 mg/kg i.v., AII 0.05 mcg/kg IV, 180 min post dose
[20] = 10 mg/kg i.v., AII 0.05 mcg/kg IV, 240 min post dose
[21] = 10 mg/kg i.v., AII 0.05 mcg/kg IV, 300 min post dose
[22] = 10 mg/kg i.v., AII 0.1 mcg/kg IV, 30 min post dose
[23] = 10 mg/kg i.v., AII 0.1 mcg/kg IV, 60 min post dose
[24] = 10 mg/kg i.v., AII 0.1 mcg/kg IV, 90 min post dose
[25] = 10 mg/kg i.v., AII 0.1 mcg/kg IV, 120 min post dose
[26] = 10 mg/kg i.v., AII 0.1 mcg/kg IV, 180 min post dose
[27] = 10 mg/kg i.v., AII 0.1 mcg/kg IV, 240 min post dose
[28] = 10 mg/kg i.v., AII 0.1 mcg/kg IV, 300 min post dose

Question: `CCCCc1nc2ccc(C(OC)C3CCCN(C)C3=O)cc2c(=O)n1Cc1ccc(-c2ccccc2-c2nn[nH]n2)cc1` (single isomer, unassigned; isomer 2) [Example 43, 2-Butyl-6-[methoxy(1-methyl-2-oxo-3-piperidinyl)methyl]-3-[[2'-(1H-tetrazol-5-yl)[1,1'-biphenyl]-4-yl]methyl]-4(3H)-quinazoline isomer 2] was tested. Which “% Inhibition of AII vasopressor response” value [1] did it give?
Answer: 24%

Question: And the “Average Change (systolic blood pressure response to AII)” value (“Average Change” below) [1]?
Answer: 32.5 mmHg

Question: What about the “% Inhibition of AII vasopressor response” value [2] of the same compound?
Answer: 47%

Question: And the “Average Change” value [2]?
Answer: 22.5 mmHg

Question: What about the “% Inhibition of AII vasopressor response” value [3] of the same compound?
Answer: 53%

Question: What about the “Average Change” value [3] of the same compound?
Answer: 20 mmHg

Question: What about the “% Inhibition of AII vasopressor response” value [4] of the same compound?
Answer: 53%

Question: What about the “Average Change” value [4] of the same compound?
Answer: 20 mmHg

Question: What about the “% Inhibition of AII vasopressor response” value [5] of the same compound?
Answer: 59%

Question: And the “Average Change” value [5]?
Answer: 17.5 mmHg

Question: And the “% Inhibition of AII vasopressor response” value [6]?
Answer: 35%

Question: And the “Average Change” value [6]?
Answer: 27.5 mmHg

Question: And the “% Inhibition of AII vasopressor response” value [7]?
Answer: 6%

Question: And the “Average Change” value [7]?
Answer: 40 mmHg

Question: And the “% Inhibition of AII vasopressor response” value [8]?
Answer: 19%

Question: And the “Average Change” value [8]?
Answer: 32.5 mmHg

Question: What about the “% Inhibition of AII vasopressor response” value [9] of the same compound?
Answer: 19%

Question: And the “Average Change” value [9]?
Answer: 32.5 mmHg

Question: What about the “% Inhibition of AII vasopressor response” value [10] of the same compound?
Answer: 56%

Question: What about the “Average Change” value [10] of the same compound?
Answer: 17.5 mmHg

Question: And the “% Inhibition of AII vasopressor response” value [11]?
Answer: 44%

Question: And the “Average Change” value [11]?
Answer: 22.5 mmHg

Question: And the “% Inhibition of AII vasopressor response” value [12]?
Answer: 6%

Question: What about the “Average Change” value [12] of the same compound?
Answer: 37.5 mmHg

Question: And the “% Inhibition of AII vasopressor response” value [13]?
Answer: 13%

Question: What about the “Average Change” value [13] of the same compound?
Answer: 35 mmHg

Question: What about the “% Inhibition of AII vasopressor response” value [14] of the same compound?
Answer: 8%

Question: What about the “Average Change” value [14] of the same compound?
Answer: 37 mmHg

Question: And the “% Inhibition of AII vasopressor response” value [15]?
Answer: 100%

Question: And the “Average Change” value [15]?
Answer: 0 mmHg

Question: What about the “% Inhibition of AII vasopressor response” value [16] of the same compound?
Answer: 77%

Question: And the “Average Change” value [16]?
Answer: 7.5 mmHg

Question: What about the “% Inhibition of AII vasopressor response” value [17] of the same compound?
Answer: 69%

Question: And the “Average Change” value [17]?
Answer: 10 mmHg

Question: What about the “% Inhibition of AII vasopressor response” value [18] of the same compound?
Answer: 69%

Question: What about the “Average Change” value [18] of the same compound?
Answer: 10 mmHg

Question: And the “% Inhibition of AII vasopressor response” value [19]?
Answer: 58%

Question: What about the “Average Change” value [19] of the same compound?
Answer: 13.5 mmHg

Question: What about the “% Inhibition of AII vasopressor response” value [20] of the same compound?
Answer: 0%

Question: And the “Average Change” value [20]?
Answer: 32.5 mmHg

Question: What about the “% Inhibition of AII vasopressor response” value [21] of the same compound?
Answer: 8%

Question: What about the “Average Change” value [21] of the same compound?
Answer: 30 mmHg

Question: What about the “% Inhibition of AII vasopressor response” value [22] of the same compound?
Answer: 92%

Question: And the “Average Change” value [22]?
Answer: 2.5 mmHg

Question: And the “% Inhibition of AII vasopressor response” value [23]?
Answer: 84%

Question: What about the “Average Change” value [23] of the same compound?
Answer: 5 mmHg

Question: And the “% Inhibition of AII vasopressor response” value [24]?
Answer: 84%

Question: And the “Average Change” value [24]?
Answer: 5 mmHg

Question: And the “% Inhibition of AII vasopressor response” value [25]?
Answer: 68%

Question: What about the “Average Change” value [25] of the same compound?
Answer: 10 mmHg

Question: What about the “% Inhibition of AII vasopressor response” value [26] of the same compound?
Answer: 44%

Question: And the “Average Change” value [26]?
Answer: 17.5 mmHg

Question: What about the “% Inhibition of AII vasopressor response” value [27] of the same compound?
Answer: 56%

Question: What about the “Average Change” value [27] of the same compound?
Answer: 13.5 mmHg

Question: And the “% Inhibition of AII vasopressor response” value [28]?
Answer: 19%

Question: What about the “Average Change” value [28] of the same compound?
Answer: 25 mmHg
